How the values were obtained:
Test in all cases: relative viability (nuclei count vs DMSO), 5 days (fraction); higher = more cells survive
Venetoclax + AZD7762 = compound: CC1(C)CCC(CN2CCN(c3ccc(C(=O)NS(=O)(=O)c4ccc(NCC5CCOCC5)c([N+](=O)[O-])c4)c(Oc4cnc5[nH]ccc5c4)c3)CC2)=C(c2ccc(Cl)cc2)C1 [Venetoclax] + NC(=O)Nc1cc(-c2cccc(F)c2)sc1C(=O)N[C@H]1CCCNC1 [AZD7762] (partner 0.2 µM)
How it was run: (§1)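 A single step with final 0.05% Triton X-100, 1% formaldehyde and 1 ug/ml Hoechst fixed the cells and stained nuclei 5 days after treatment. Lung cancer cell lines in 1536-well plates had been treated by pin tool the day after seeding with one drug alone or a fixed anchor-drug dose plus five library-drug doses (not always all listed) in √10 steps, and nuclei were counted on 4× images. Relative viability is the ratio of nuclei in treated wells to nuclei in vehicle wells, taken as the median of duplicate plates.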

Venetoclax + Olaparib = compound: CC1(C)CCC(CN2CCN(c3ccc(C(=O)NS(=O)(=O)c4ccc(NCC5CCOCC5)c([N+](=O)[O-])c4)c(Oc4cnc5[nH]ccc5c4)c3)CC2)=C(c2ccc(Cl)cc2)C1 [Venetoclax] + O=C(c1cc(Cc2n[nH]c(=O)c3ccccc23)ccc1F)N1CCN(C(=O)C2CC2)CC1 [Olaparib] (partner 8 µM)
How it was run: as §1

Selumetinib + Foretinib = compound: Cn1cnc2c(F)c(Nc3ccc(Br)cc3Cl)c(C(=O)NOCCO)cc21 [Selumetinib] + COc1cc2c(Oc3ccc(NC(=O)C4(C(=O)Nc5ccc(F)cc5)CC4)cc3F)ccnc2cc1OCCCN1CCOCC1 [Foretinib] (partner 0.25 µM)
How it was run: as §1

Selumetinib + Crizotinib = compound: Cn1cnc2c(F)c(Nc3ccc(Br)cc3Cl)c(C(=O)NOCCO)cc21 [Selumetinib] + C[C@@H](Oc1cc(-c2cnn(C3CCNCC3)c2)cnc1N)c1c(Cl)ccc(F)c1Cl [Crizotinib] (partner 1 µM)
How it was run: as §1

Cell Line: HCC-366
- relative viability (Venetoclax + AZD7762; first compound 0.01 µM): 0.332
- relative viability (Venetoclax + AZD7762; first compound 0.03162 µM): 0.202
- relative viability (Venetoclax + AZD7762; first compound 0.1 µM): 0.214
- relative viability (Venetoclax + AZD7762; first compound 0.3162 µM): 0.25
- relative viability (Venetoclax + AZD7762; first compound 1 µM): 0.141
- relative viability (Venetoclax + Olaparib; first compound 0.01 µM): 0.4
- relative viability (Venetoclax + Olaparib; first compound 0.03162 µM): 0.374
- relative viability (Venetoclax + Olaparib; first compound 0.1 µM): 0.372
- relative viability (Venetoclax + Olaparib; first compound 0.3162 µM): 0.353
- relative viability (Venetoclax + Olaparib; first compound 1 µM): 0.311
- relative viability (Selumetinib + Foretinib; first compound 0.02 µM): 0.866
- relative viability (Selumetinib + Foretinib; first compound 0.06325 µM): 0.865
- relative viability (Selumetinib + Foretinib; first compound 0.2 µM): 0.755
- relative viability (Selumetinib + Foretinib; first compound 0.6325 µM): 0.645
- relative viability (Selumetinib + Crizotinib; first compound 0.02 µM): 0.492
- relative viability (Selumetinib + Crizotinib; first compound 0.06325 µM): 0.462
- relative viability (Selumetinib + Crizotinib; first compound 0.2 µM): 0.308
- relative viability (Selumetinib + Crizotinib; first compound 0.6325 µM): 0.238

Cell Line: HCC-827
- relative viability (Venetoclax + AZD7762; first compound 0.01 µM): 0.27
- relative viability (Venetoclax + AZD7762; first compound 0.03162 µM): 0.258
- relative viability (Venetoclax + AZD7762; first compound 0.1 µM): 0.302
- relative viability (Venetoclax + AZD7762; first compound 0.3162 µM): 0.224
- relative viability (Venetoclax + AZD7762; first compound 1 µM): 0.183
- relative viability (Venetoclax + Olaparib; first compound 0.01 µM): 0.647
- relative viability (Venetoclax + Olaparib; first compound 0.03162 µM): 0.703
- relative viability (Venetoclax + Olaparib; first compound 0.1 µM): 0.642
- relative viability (Venetoclax + Olaparib; first compound 0.3162 µM): 0.603
- relative viability (Venetoclax + Olaparib; first compound 1 µM): 0.655
- relative viability (Selumetinib + Foretinib; first compound 0.02 µM): 0.942
- relative viability (Selumetinib + Foretinib; first compound 0.06325 µM): 0.983
- relative viability (Selumetinib + Foretinib; first compound 0.2 µM): 0.989
- relative viability (Selumetinib + Foretinib; first compound 0.6325 µM): 0.86
- relative viability (Selumetinib + Crizotinib; first compound 0.02 µM): 0.945
- relative viability (Selumetinib + Crizotinib; first compound 0.06325 µM): 0.913
- relative viability (Selumetinib + Crizotinib; first compound 0.2 µM): 0.869
- relative viability (Selumetinib + Crizotinib; first compound 0.6325 µM): 0.83

Cell Line: HOP-62
- relative viability (Venetoclax + AZD7762; first compound 0.01 µM): 0.486
- relative viability (Venetoclax + AZD7762; first compound 0.03162 µM): 0.841
- relative viability (Venetoclax + AZD7762; first compound 0.1 µM): 0.522
- relative viability (Venetoclax + AZD7762; first compound 0.3162 µM): 0.726
- relative viability (Venetoclax + AZD7762; first compound 1 µM): 0.494
- relative viability (Venetoclax + Olaparib; first compound 0.01 µM): 0.318
- relative viability (Venetoclax + Olaparib; first compound 0.03162 µM): 0.622
- relative viability (Venetoclax + Olaparib; first compound 0.1 µM): 0.359
- relative viability (Venetoclax + Olaparib; first compound 0.3162 µM): 0.203
- relative viability (Venetoclax + Olaparib; first compound 1 µM): 0.394
- relative viability (Selumetinib + Foretinib; first compound 0.02 µM): 1.06
- relative viability (Selumetinib + Foretinib; first compound 0.06325 µM): 1.02
- relative viability (Selumetinib + Foretinib; first compound 0.2 µM): 0.807
- relative viability (Selumetinib + Foretinib; first compound 0.6325 µM): 0.504
- relative viability (Selumetinib + Crizotinib; first compound 0.02 µM): 0.841
- relative viability (Selumetinib + Crizotinib; first compound 0.06325 µM): 0.877
- relative viability (Selumetinib + Crizotinib; first compound 0.2 µM): 0.909
- relative viability (Selumetinib + Crizotinib; first compound 0.6325 µM): 0.515

Cell Line: IA-LM
- relative viability (Venetoclax + Olaparib; first compound 0.01 µM): 0.795
- relative viability (Venetoclax + Olaparib; first compound 0.03162 µM): 0.819
- relative viability (Venetoclax + Olaparib; first compound 0.1 µM): 0.7
- relative viability (Venetoclax + Olaparib; first compound 0.3162 µM): 0.795
- relative viability (Venetoclax + Olaparib; first compound 1 µM): 0.67
- relative viability (Selumetinib + Foretinib; first compound 0.02 µM): 0.949
- relative viability (Selumetinib + Foretinib; first compound 0.06325 µM): 0.837
- relative viability (Selumetinib + Foretinib; first compound 0.2 µM): 0.576
- relative viability (Selumetinib + Foretinib; first compound 0.6325 µM): 0.403
- relative viability (Selumetinib + Crizotinib; first compound 0.02 µM): 0.662
- relative viability (Selumetinib + Crizotinib; first compound 0.06325 µM): 0.54
- relative viability (Selumetinib + Crizotinib; first compound 0.2 µM): 0.314
- relative viability (Selumetinib + Crizotinib; first compound 0.6325 µM): 0.335

Cell Line: LC-2-ad
- relative viability (Venetoclax + AZD7762; first compound 0.01 µM): 0.992
- relative viability (Venetoclax + AZD7762; first compound 0.03162 µM): 0.856
- relative viability (Venetoclax + AZD7762; first compound 0.1 µM): 0.809
- relative viability (Venetoclax + AZD7762; first compound 0.3162 µM): 0.845
- relative viability (Venetoclax + AZD7762; first compound 1 µM): 0.802
- relative viability (Venetoclax + Olaparib; first compound 0.01 µM): 0.735
- relative viability (Venetoclax + Olaparib; first compound 0.03162 µM): 0.696
- relative viability (Venetoclax + Olaparib; first compound 0.1 µM): 0.664
- relative viability (Venetoclax + Olaparib; first compound 0.3162 µM): 0.702
- relative viability (Venetoclax + Olaparib; first compound 1 µM): 0.708
- relative viability (Selumetinib + Foretinib; first compound 0.02 µM): 0.828
- relative viability (Selumetinib + Foretinib; first compound 0.06325 µM): 0.722
- relative viability (Selumetinib + Foretinib; first compound 0.2 µM): 0.643
- relative viability (Selumetinib + Foretinib; first compound 0.6325 µM): 0.533
- relative viability (Selumetinib + Crizotinib; first compound 0.02 µM): 0.397
- relative viability (Selumetinib + Crizotinib; first compound 0.06325 µM): 0.446
- relative viability (Selumetinib + Crizotinib; first compound 0.2 µM): 0.431
- relative viability (Selumetinib + Crizotinib; first compound 0.6325 µM): 0.405

Cell Line: NCI-H520
- relative viability (Venetoclax + Olaparib; first compound 0.01 µM): 0.388
- relative viability (Venetoclax + Olaparib; first compound 0.03162 µM): 0.315
- relative viability (Venetoclax + Olaparib; first compound 0.3162 µM): 0.327
- relative viability (Venetoclax + Olaparib; first compound 1 µM): 0.387
- relative viability (Selumetinib + Foretinib; first compound 0.02 µM): 0.746
- relative viability (Selumetinib + Foretinib; first compound 0.06325 µM): 0.759
- relative viability (Selumetinib + Foretinib; first compound 0.2 µM): 1.02
- relative viability (Selumetinib + Foretinib; first compound 0.6325 µM): 0.758
- relative viability (Selumetinib + Crizotinib; first compound 0.02 µM): 0.791
- relative viability (Selumetinib + Crizotinib; first compound 0.06325 µM): 0.766
- relative viability (Selumetinib + Crizotinib; first compound 0.2 µM): 0.764
- relative viability (Selumetinib + Crizotinib; first compound 0.6325 µM): 0.809

Cell Line: NCI-H522
- relative viability (Venetoclax + AZD7762; first compound 0.01 µM): 1.01
- relative viability (Venetoclax + AZD7762; first compound 0.03162 µM): 0.769
- relative viability (Venetoclax + AZD7762; first compound 0.1 µM): 0.85
- relative viability (Venetoclax + AZD7762; first compound 0.3162 µM): 0.923
- relative viability (Venetoclax + AZD7762; first compound 1 µM): 0.689
- relative viability (Venetoclax + Olaparib; first compound 0.01 µM): 0.561
- relative viability (Venetoclax + Olaparib; first compound 0.03162 µM): 0.611
- relative viability (Venetoclax + Olaparib; first compound 0.1 µM): 0.612
- relative viability (Venetoclax + Olaparib; first compound 0.3162 µM): 0.621
- relative viability (Venetoclax + Olaparib; first compound 1 µM): 0.688

Cell Line: NCI-H661
- relative viability (Venetoclax + Olaparib; first compound 0.01 µM): 0.745
- relative viability (Venetoclax + Olaparib; first compound 0.03162 µM): 0.789
- relative viability (Venetoclax + Olaparib; first compound 0.1 µM): 0.715
- relative viability (Venetoclax + Olaparib; first compound 0.3162 µM): 0.74
- relative viability (Venetoclax + Olaparib; first compound 1 µM): 0.708
- relative viability (Selumetinib + Foretinib; first compound 0.02 µM): 1.12
- relative viability (Selumetinib + Foretinib; first compound 0.06325 µM): 0.979
- relative viability (Selumetinib + Foretinib; first compound 0.2 µM): 1.02
- relative viability (Selumetinib + Foretinib; first compound 0.6325 µM): 0.913
- relative viability (Selumetinib + Crizotinib; first compound 0.02 µM): 1.25
- relative viability (Selumetinib + Crizotinib; first compound 0.06325 µM): 0.945
- relative viability (Selumetinib + Crizotinib; first compound 0.2 µM): 1.07
- relative viability (Selumetinib + Crizotinib; first compound 0.6325 µM): 1.23

Cell Line: NCI-H1299
- relative viability (Venetoclax + Olaparib; first compound 0.01 µM): 0.975
- relative viability (Venetoclax + Olaparib; first compound 0.03162 µM): 0.991
- relative viability (Venetoclax + Olaparib; first compound 0.1 µM): 1.01
- relative viability (Venetoclax + Olaparib; first compound 0.3162 µM): 0.927
- relative viability (Venetoclax + Olaparib; first compound 1 µM): 0.943
- relative viability (Selumetinib + Foretinib; first compound 0.02 µM): 1.23
- relative viability (Selumetinib + Foretinib; first compound 0.06325 µM): 1.08
- relative viability (Selumetinib + Foretinib; first compound 0.2 µM): 1.09
- relative viability (Selumetinib + Foretinib; first compound 0.6325 µM): 0.935
- relative viability (Selumetinib + Crizotinib; first compound 0.02 µM): 1.06
- relative viability (Selumetinib + Crizotinib; first compound 0.06325 µM): 0.961
- relative viability (Selumetinib + Crizotinib; first compound 0.2 µM): 0.939
- relative viability (Selumetinib + Crizotinib; first compound 0.6325 µM): 0.84

Cell Line: NCI-H1395
- relative viability (Venetoclax + AZD7762; first compound 0.01 µM): 0.402
- relative viability (Venetoclax + AZD7762; first compound 0.03162 µM): 0.442
- relative viability (Venetoclax + AZD7762; first compound 0.1 µM): 0.392
- relative viability (Venetoclax + AZD7762; first compound 0.3162 µM): 0.434
- relative viability (Venetoclax + AZD7762; first compound 1 µM): 0.405
- relative viability (Venetoclax + Olaparib; first compound 0.01 µM): 0.451
- relative viability (Venetoclax + Olaparib; first compound 0.03162 µM): 0.484
- relative viability (Venetoclax + Olaparib; first compound 0.1 µM): 0.447
- relative viability (Venetoclax + Olaparib; first compound 0.3162 µM): 0.473
- relative viability (Venetoclax + Olaparib; first compound 1 µM): 0.427
- relative viability (Selumetinib + Foretinib; first compound 0.02 µM): 0.959
- relative viability (Selumetinib + Foretinib; first compound 0.06325 µM): 0.978
- relative viability (Selumetinib + Foretinib; first compound 0.2 µM): 0.928
- relative viability (Selumetinib + Foretinib; first compound 0.6325 µM): 0.94

Cell Line: NCI-H1563
- relative viability (Selumetinib + Foretinib; first compound 0.02 µM): 0.879
- relative viability (Selumetinib + Foretinib; first compound 0.06325 µM): 0.955
- relative viability (Selumetinib + Foretinib; first compound 0.2 µM): 0.903
- relative viability (Selumetinib + Foretinib; first compound 0.6325 µM): 0.824
- relative viability (Selumetinib + Crizotinib; first compound 0.02 µM): 0.858
- relative viability (Selumetinib + Crizotinib; first compound 0.06325 µM): 0.825
- relative viability (Selumetinib + Crizotinib; first compound 0.2 µM): 0.865
- relative viability (Selumetinib + Crizotinib; first compound 0.6325 µM): 0.781
